Assay results from paper PMC4054929 (Bioorganic & medicinal chemistry, 2014).

Experiment: In vivo biodistribution and regional brain uptake in rats
Conditions: male SD rats, i.v.

## Cn1cc(-c2ccncc2)c(-c2ccc(OCc3ccc4cc(O[11CH3])ccc4n3)cc2)n1 [[^11C]3, 6-(methoxy-^11C)-2-((4-(1-methyl-4-(pyridin-4-yl)-1H-pyrazol-3-yl)phenoxy)methyl)quinoline]
5 min p.i.
  Biodistribution, blood: 0.282 ± 0.025 %ID/gram
  Biodistribution, cerebellum: 0.251 ± 0.031 %ID/gram
  Biodistribution, fat: 0.139 ± 0.038 %ID/gram
  Biodistribution, heart: 0.416 ± 0.026 %ID/gram
  Biodistribution, kidney: 1.333 ± 0.282 %ID/gram
  Biodistribution, liver: 5.357 ± 0.989 %ID/gram
  Biodistribution, lung: 0.744 ± 0.241 %ID/gram
  Biodistribution, muscle: 0.151 ± 0.027 %ID/gram
  Biodistribution, striatum: 0.293 ± 0.075 ^b %ID/gram
  Biodistribution, total brain: 0.249 ± 0.037 %ID/gram
30 min p.i. (control)
  Biodistribution, blood: 0.275 ± 0.041 %ID/gram
  Biodistribution, cerebellum: 0.090 ± 0.018 %ID/gram
  Biodistribution, fat: 0.221 ± 0.060 %ID/gram
  Biodistribution, heart: 0.264 ± 0.032 %ID/gram
  Biodistribution, kidney: 0.883 ± 0.123 %ID/gram
  Biodistribution, liver: 3.172 ± 0.606 %ID/gram
  Biodistribution, lung: 0.389 ± 0.082 %ID/gram
  Biodistribution, muscle: 0.175 ± 0.009 %ID/gram
  Biodistribution, striatum: 0.160 ± 0.023 ^a %ID/gram
  Biodistribution, total brain: 0.105 ± 0.011 %ID/gram
60 min p.i.
  Biodistribution, blood: 0.210 ± 0.023 %ID/gram
  Biodistribution, cerebellum: 0.066 ± 0.008 %ID/gram
  Biodistribution, fat: 0.135 ± 0.026 %ID/gram
  Biodistribution, heart: 0.182 ± 0.020 %ID/gram
  Biodistribution, kidney: 0.637 ± 0.052 %ID/gram
  Biodistribution, liver: 1.724 ± 0.510 %ID/gram
  Biodistribution, lung: 0.249 ± 0.015 %ID/gram
  Biodistribution, muscle: 0.129 ± 0.006 %ID/gram
  Biodistribution, striatum: 0.089 ± 0.014 ^a %ID/gram
  Biodistribution, total brain: 0.074 ± 0.005 %ID/gram

## Cn1ncc(-c2ccncc2)c1-c1ccc(OCc2cc(O[11CH3])c3ccccc3n2)cc1 [[^11C]4, 4-(methoxy-^11C)-2-((4-(1-methyl-4-(pyridin-4-yl)-1H-pyrazol-5-yl)phenoxy)methyl)quinoline]
5 min p.i.
  Biodistribution, blood: 0.099 ± 0.015 %ID/gram
  Biodistribution, cerebellum: 0.094 ± 0.017 %ID/gram
  Biodistribution, fat: 0.066 ± 0.016 %ID/gram
  Biodistribution, heart: 0.335 ± 0.026 %ID/gram
  Biodistribution, kidney: 1.744 ± 0.316 %ID/gram
  Biodistribution, liver: 3.312 ± 0.494 %ID/gram
  Biodistribution, lung: 0.643 ± 0.196 %ID/gram
  Biodistribution, muscle: 0.146 ± 0.027 %ID/gram
  Biodistribution, striatum: 0.151 ± 0.033 ^a %ID/gram
  Biodistribution, total brain: 0.091 ± 0.017 %ID/gram
30 min p.i. (control)
  Biodistribution, blood: 0.067 ± 0.006 %ID/gram
  Biodistribution, cerebellum: 0.024 ± 0.007 %ID/gram
  Biodistribution, fat: 0.139 ± 0.027 %ID/gram
  Biodistribution, heart: 0.132 ± 0.019 %ID/gram
  Biodistribution, kidney: 0.645 ± 0.088 %ID/gram
  Biodistribution, liver: 4.430 ± 0.481 %ID/gram
  Biodistribution, lung: 0.156 ± 0.020 %ID/gram
  Biodistribution, muscle: 0.093 ± 0.010 %ID/gram
  Biodistribution, striatum: 0.083 ± 0.010 ^a %ID/gram
  Biodistribution, total brain: 0.025 ± 0.004 %ID/gram
60 min p.i.
  Biodistribution, blood: 0.067 ± 0.011 %ID/gram
  Biodistribution, cerebellum: 0.015 ± 0.003 %ID/gram
  Biodistribution, fat: 0.139 ± 0.058 %ID/gram
  Biodistribution, heart: 0.103 ± 0.012 %ID/gram
  Biodistribution, kidney: 0.575 ± 0.075 %ID/gram
  Biodistribution, liver: 4.588 ± 0.577 %ID/gram
  Biodistribution, lung: 0.107 ± 0.016 %ID/gram
  Biodistribution, muscle: 0.052 ± 0.009 %ID/gram
  Biodistribution, striatum: 0.037 ± 0.004 ^a %ID/gram
  Biodistribution, total brain: 0.015 ± 0.002 %ID/gram
